{"source": "patent US20110117208A1", "about": "“CHRONIC WOUND TREATMENT” (TECHNOSTICS LIMITED, priority 2008, published 2011)", "key": {"elastase": {"target": "T1, elastase (Sus scrofa, UniProt P00772)", "T1 construct": "Elastase (from porcine pancreas Type I, aqueous); purchased Sigma-Aldrich Ltd, UK; host or cells: porcine pancreas", "T1 sequence (P00772 27-266)": "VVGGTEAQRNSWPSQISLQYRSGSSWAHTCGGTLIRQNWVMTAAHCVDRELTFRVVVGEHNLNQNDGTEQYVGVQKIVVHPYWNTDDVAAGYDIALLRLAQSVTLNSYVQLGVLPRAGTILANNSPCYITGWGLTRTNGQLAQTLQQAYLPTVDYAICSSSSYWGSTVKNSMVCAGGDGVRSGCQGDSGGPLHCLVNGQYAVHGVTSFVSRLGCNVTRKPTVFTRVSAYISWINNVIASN", "assay": "Elastin Congo red assay", "type": "biochemical, porcine", "conditions": "pH 8; FIG. 12, 13, 14", "description": "Elastin Congo red is a commercially available elastin substrate impregnated with the chromophore Congo red. In the presence of elastase the Congo red dye is liberated from the elastin and the resulting colour change can be measured and correlated with elastolytic activity. The elastin Congo red assay was used to determine the inhibitory effect of polyphosphates and trimetaphosphate on the elastase against the elastin Congo red substrate.\nA series of test solutions containing between 0-306 mg/ml of the proposed inhibitor were prepared. 100 μl of this test solution was then thoroughly mixed with 100 μl of elastase solution on a vortex mixer. […] of buffered Elastin Congo red solution was then added and mixed. The inhibitor:enzyme:Elastin Congo red sample was then incubated overnight in a heated water bath at 37° C. Samples were then removed from the water bath and placed in iced water to cool for 30 minutes before being centrifuged (Fisher Scientific, accuSpin Model 400 Benchtop Centrifuge) at 13000 rpm for 5 minutes. The absorbance of the supernatant was measured at 540 nm (Labsystems Multiskan Ascent 354, ThermoFisher Scientific, Horsham, West Sussex, UK) using deionised water as a blank. […]"}, "pepsin": {"target": "T2, pepsin (Sus scrofa, UniProt P00791)", "T2 construct": "purchased Sigma-Aldrich Ltd, UK; host or cells: porcine gastric mucosa", "T2 sequence (P00791 60-385)": "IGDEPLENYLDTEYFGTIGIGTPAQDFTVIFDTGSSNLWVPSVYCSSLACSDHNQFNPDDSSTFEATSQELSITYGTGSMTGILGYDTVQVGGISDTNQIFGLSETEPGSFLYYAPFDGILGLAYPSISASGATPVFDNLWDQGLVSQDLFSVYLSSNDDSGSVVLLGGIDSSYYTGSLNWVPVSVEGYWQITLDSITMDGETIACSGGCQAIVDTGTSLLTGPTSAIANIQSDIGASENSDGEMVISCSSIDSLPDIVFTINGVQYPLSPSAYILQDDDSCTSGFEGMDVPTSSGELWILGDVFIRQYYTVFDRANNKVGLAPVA", "assay": "Trichloroacetic acid (TCA) precipitation assay, pepsin against haemoglobin", "type": "biochemical, porcine", "conditions": "pH 2; FIG. 4", "description": "The TCA assay is based on the method described by M. L. Anson (1938). J General Physiol, 22, 79-89. The substrate, bovine haemoglobin, is digested by pepsin. Any remaining undigested haemoglobin is then precipitated with TCA to yield a supernatant which contains only products of digested haemoglobin. The concentration of haemoglobin breakdown products in the supernatant is measured spectrophotometrically and provides an indication of proteinase activity. The TCA precipitation assay was used to determine the inhibitory effect of polyphosphates and trimetaphosphate on the action of pepsin against haemoglobin.\nA series of test solutions containing between 0-306 mg/ml of the proposed inhibitor were prepared. 100 μl of this test solution was then thoroughly mixed with 100 μl of pepsin solution on a vortex mixer before 1500 μl of buffered bovine haemoglobin solution was added and mixed. The inhibitor:enzyme:haemoglobin sample was then incubated in a heated water bath for 30 minutes at 37° C. The samples was then removed from the incubator, mixed with 2.0 ml TCA solution and left to stand for 30 minutes in iced water. […] The absorbance of the supernatant was measured at 280 nm (Labsystems Multiskan Ascent 354, ThermoFisher Scientific, Horsham, West Sussex, UK) using deionised water as a blank. […]"}}, "data": [{"smiles": "O=P1([O-])OP(=O)([O-])OP(=O)([O-])O1.[Na+].[Na+].[Na+]", "note": "[sodium trimetaphosphate]", "values": [{"measurement": "inhibition of elastase (in words, comparison)", "setting": "elastase", "value": "could also inhibit elastase across a wide concentration range; however, the extent of inhibition at maximal concentrations was not as large as that observed with polyphosphates"}, {"measurement": "inhibition of pepsin (in words)", "setting": "pepsin", "value": "could also inhibit pepsin across a wide concentration range; however, the potency and extent of inhibition at maximal concentrations was not as large as that observed with polyphosphates"}]}]}
